Assay results taken from PubChem BioAssay AID256 (DTP/NCI, 2004).
Where “and” joins values, the source holds several entries; their conditions need not be identical. Equal entries are not always repeated. Toxic doses and inconclusive results are not listed. Rule for the calls: active = survival T/C of 150% or more; inactive = T/C below 125% in these data.

Tested on: CD2F1 mice, L1210 leukemia ip, survival T/C
Assay: NCI In Vivo Anticancer Drug Screen. Data for tumor model L1210 Leukemia (intraperitoneal) in CD2F1 (CDF1) mice
Conditions: endpoint: mean survival time, higher = longer survival
How it was run: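 Mice carrying a transplanted tumor received test compound or vehicle alone. The value is the measurement in the treated group divided by that in the vehicle-treated control group.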

[1] = dose: 100.0 mg/kg/injection, schedule: Q04DX003 (ip), vehicle: saline with Tween-80
[2] = dose: 200.0 mg/kg/injection, schedule: Q04DX003 (ip), vehicle: saline with Tween-80
[3] = dose: 25.0 mg/kg/injection, schedule: Q04DX003 (ip), vehicle: saline with Tween-80
[4] = dose: 50.0 mg/kg/injection, schedule: Q04DX003 (ip), vehicle: saline with Tween-80
[5] = dose: 100.0 mg/kg/injection, schedule: Q04DX003 (ip), vehicle: saline
[6] = dose: 200.0 mg/kg/injection, schedule: Q04DX003 (ip), vehicle: saline
[7] = dose: 400.0 mg/kg/injection, schedule: Q04DX003 (ip), vehicle: saline with Tween-80
[8] = dose: 100.0 mg/kg/injection, schedule: Q01DX009 (ip), vehicle: saline with Tween-80
[9] = dose: 200.0 mg/kg/injection, schedule: Q01DX009 (ip), vehicle: saline with Tween-80
[10] = dose: 400.0 mg/kg/injection, schedule: Q01DX009 (ip), vehicle: saline with Tween-80
[11] = dose: 100.0 mg/kg/injection, schedule: Q01DX001 (ip), vehicle: saline with Tween-80
[12] = dose: 200.0 mg/kg/injection, schedule: Q01DX001 (ip), vehicle: saline with Tween-80
[13] = dose: 400.0 mg/kg/injection, schedule: Q01DX001 (ip), vehicle: saline with Tween-80
[14] = dose: 400.0 mg/kg/injection, schedule: Q04DX003 (ip), vehicle: saline
[15] = dose: 400.0 mg/kg/injection, schedule: Q01DX001 (ip), vehicle: other

Measured: T/C

COC(=O)c1ccc(N(C)C/C(CN2C(=O)c3ccccc3C2=O)=N\O)cc1
inactive: dose: 75.0 mg/kg/injection, schedule: Q01DX001 (ip), vehicle: other 92 % of control | dose: 150.0 mg/kg/injection, schedule: Q01DX001 (ip), vehicle: other 106 % of control

C=CC1OC2CCCCC2O1 (stereo unspecified)
inactive: dose: 100.0 mg/kg/injection, schedule: Q01DX001 (ip), vehicle: acetone 104 % of control

O=c1oc(-c2cccc([N+](=O)[O-])c2)nc2ccccc12
inactive: [1] 100 % of control | [2] 88 % of control

Cc1ccc(CNc2ccc(C)c(Cl)c2)cc1
inactive: dose: 100.0 mg/kg/injection, schedule: Q04DX003 (ip), vehicle: other 101 % of control | dose: 200.0 mg/kg/injection, schedule: Q04DX003 (ip), vehicle: other 97 % of control | dose: 400.0 mg/kg/injection, schedule: Q04DX003 (ip), vehicle: other 96 % of control

Cc1nc2ccccc2cc1C[N+]12CN3CN(CN(C3)C1)C2
inactive: dose: 25.0 mg/kg/injection, schedule: Q01DX009 (ip), vehicle: saline with Tween-80 106 % of control | [3] 101 % of control | dose: 50.0 mg/kg/injection, schedule: Q01DX009 (ip), vehicle: saline with Tween-80 113 % of control | [4] 103 % of control | dose: 100.0 mg/kg/injection, schedule: Q01DX001 (ip), vehicle: saline 109 % of control

C[N+](C)(C)CCOC(=O)Nc1ccc(C(c2ccc(NC(=O)OCC[N+](C)(C)C)cc2)c2ccc(NC(=O)OCC[N+](C)(C)C)cc2)cc1
inactive: dose: 0.25 mg/kg/injection, schedule: Q04DX003 (ip), vehicle: saline with Tween-80 97 % of control | dose: 0.5 mg/kg/injection, schedule: Q04DX003 (ip), vehicle: saline with Tween-80 96 % of control | dose: 1.0 mg/kg/injection, schedule: Q04DX003 (ip), vehicle: saline with Tween-80 94 % of control

CCCCCC(O)CCC(=O)NN (stereo unspecified)
inactive: [5] 100 % of control | [6] 117 % of control

O=C(c1ccccc1)C1(c2ccccc2)CC1
inactive: [1] 108 % of control | [2] 101 % of control | [7] 101 % of control

CCOC(=O)C(C(C)=O)C(c1ccc(OC)cc1)C(C(C)=O)C(=O)OCC (stereo unspecified)
inactive: [8] 94 % of control | [1] 100 % of control | [9] 97 % of control | [2] 99 % of control | [10] 92 % of control | [7] 106 % of control

O=c1cc(Nc2cccc(Cl)c2Cl)[nH]c(=O)[nH]1
inactive: [11] 93 % of control and 97 % of control | dose: 100.0 mg/kg/injection, schedule: Q04DX002 (ip), vehicle: saline with Tween-80 118 % of control and 91 % of control | [12] 97 % of control and 98 % of control | dose: 200.0 mg/kg/injection, schedule: Q04DX002 (ip), vehicle: saline with Tween-80 90 % of control and 92 % of control | [13] 95 % of control and 97 % of control | dose: 400.0 mg/kg/injection, schedule: Q04DX002 (ip), vehicle: saline with Tween-80 91 % of control and 100 % of control

[O-][n+]1cc(-c2ccccc2)cc2ccccc21
inactive: [4] 97 % of control | [1] 97 % of control

CC(=O)OC1CCC(C(C)(C)C)CC1 (stereo unspecified)
inactive: [5] 102 % of control | [6] 95 % of control | [14] 96 % of control

CNC(C)c1ccc(C)cc1 (stereo unspecified)
inactive: dose: 6.25 mg/kg/injection, schedule: Q04DX003 (ip), vehicle: saline with Tween-80 98 % of control | dose: 12.5 mg/kg/injection, schedule: Q04DX003 (ip), vehicle: saline with Tween-80 108 % of control | [3] 101 % of control

Cc1ccc(C(=O)CCCCl)c(C)c1
inactive: [8] 111 % of control | [9] 104 % of control | [10] 104 % of control

COc1ccc(C(=O)CC(=O)NC(=O)c2ccc(OC)cc2)cc1
inactive: dose: 100.0 mg/kg/injection, schedule: Q01DX001 (ip), vehicle: other 96 % of control | dose: 200.0 mg/kg/injection, schedule: Q01DX001 (ip), vehicle: other 97 % of control | [15] 96 % of control

NC(=O)NC1CC1(c1ccccc1)c1ccccc1 (stereo unspecified)
inactive: dose: 177.0 mg/kg/injection, schedule: Q01DX001 (ip), vehicle: other 94 % of control | dose: 267.0 mg/kg/injection, schedule: Q01DX001 (ip), vehicle: other 96 % of control | [15] 100 % of control

O=C(c1ccccc1)c1cc2ccccc2o1
inactive: dose: 50.0 mg/kg/injection, schedule: Q01DX009 (ip), vehicle: saline + alcohol 102 % of control | dose: 100.0 mg/kg/injection, schedule: Q01DX009 (ip), vehicle: saline + alcohol 105 % of control | dose: 200.0 mg/kg/injection, schedule: Q01DX009 (ip), vehicle: saline + alcohol 93 % of control

O=C(OCC1OC(OC2(COC(=O)c3ccccc3)OC(COC(=O)c3ccccc3)C(OC(=O)c3ccccc3)C2OC(=O)c2ccccc2)C(OC(=O)c2ccccc2)C(OC(=O)c2ccccc2)C1OC(=O)c1ccccc1)c1ccccc1 (stereo unspecified)
inactive: [11] 100 % of control | [12] 100 % of control | [13] 102 % of control

BrC1(Br)C2CC/C=C/CCCCC21 (stereo unspecified)
inactive: dose: 100.0 mg/kg/injection, schedule: Q04DX003 (ip), vehicle: saline sonified 97 % of control | dose: 200.0 mg/kg/injection, schedule: Q04DX003 (ip), vehicle: saline sonified 94 % of control | dose: 400.0 mg/kg/injection, schedule: Q04DX003 (ip), vehicle: saline sonified 97 % of control

OCC1OC(n2cnc3c2[nH]c(=S)n2ccnc32)C(O)C1O (stereo unspecified)
inactive: dose: 12.5 mg/kg/injection, schedule: Q01DX005 (ip), vehicle: water 96 % of control | dose: 25.0 mg/kg/injection, schedule: Q01DX005 (ip), vehicle: water 101 % of control | dose: 50.0 mg/kg/injection, schedule: Q01DX005 (ip), vehicle: water 96 % of control | dose: 100.0 mg/kg/injection, schedule: Q01DX005 (ip), vehicle: water 101 % of control | dose: 200.0 mg/kg/injection, schedule: Q01DX005 (ip), vehicle: water 101 % of control

O=C1NC(=O)C2(CCN(Cc3ccccc3)CC2)C(=O)N1
inactive: dose: 75.0 mg/kg/injection, schedule: Q01DX001 (ip), vehicle: saline 96 % of control | dose: 150.0 mg/kg/injection, schedule: Q01DX001 (ip), vehicle: saline 98 % of control | dose: 300.0 mg/kg/injection, schedule: Q01DX001 (ip), vehicle: saline 96 % of control

N#Cc1c(F)c(F)c(NN)c(F)c1F
inactive: [1] 93 % of control | [2] 89 % of control

O=C(N/N=C\c1ccc([N+](=O)[O-])cc1)c1ccccc1
inactive: [1] 94 % of control | [2] 94 % of control | [7] 92 % of control

CCOC(=O)c1sc(C(=O)OCC)c(-c2ccccc2)c1-c1ccccc1
inactive: [11] 108 % of control | [12] 93 % of control | [13] 96 % of control

Nc1ccc(S(=O)(=O)c2ccc(NCC(=O)O)cc2)cc1
inactive: [5] 100 % of control | [6] 100 % of control | [14] 100 % of control

CCCCCCN(CCCCCC)CP(=O)(CN(CCCCCC)CCCCCC)CN(CCCCCC)CCCCCC
inactive: [11] 95 % of control | [12] 104 % of control | [13] 104 % of control
